Experimental data taken from patent US6458831B1, “Use of two plant phenols in the treatment of arteriosclerosis” (Council of Scientific and Industrial Research, priority 2000, dated 2002).

Columns and labels:
[1] = test system: p-388 lymphocyte leukemia; settings: cited from earlier work
[2] = Effectiveness on administration at 250 mg/kg of body weight; assay type: in vivo; settings: dosage of 250 mg/kg of body weight
[3] = In vitro DPPH free radical scavenging antioxidant potency; settings: Tris-HCl buffer pH 7.4, 45 minutes in dark, absorbency at 517 nm, references probucol and α-tocopherol
Protocol: In vitro evaluation of free radical scavenging antioxidant potency:
Antioxidant activity of the compounds ((−)-Matairesinol and (−)-wikstromol) were tested for their capacity/potency to scavenger most widely used free radical 2,2-diphenyl-1-[…] radical (DPPH). The well-accepted and tested probucol and α-tocopherol were taken as reference compounds. 1 mg/ml DMSO concentration of the compounds [(−)-Matairesinol and (−)-wikstromol] were prepared and subsequently, serially diluted to lower concentrations with DMSO […] of test compounds were reconstituted to 1 ml in Tris-HCl buffer (pH 7.4) equal volume of 500 μm of DPPH radical dissolved in ethanol was reacted with this. After incubation for 45 minutes in dark, the absorbency at 517 nm was recorded. Radical with no compound was taken as control for calculation of % radical scavenging activity. All the readings were recorded in triplicate.

[4] = test system: HIV; settings: cited from earlier work
[5] = test system: CAMP phosphodiesterase; settings: cited from earlier work
[6] = target: T1, human sex hormone-binding globulin (SHBG) (Homo sapiens, UniProt P04278); settings: cited from earlier work
T1 sequence (P04278 30-402): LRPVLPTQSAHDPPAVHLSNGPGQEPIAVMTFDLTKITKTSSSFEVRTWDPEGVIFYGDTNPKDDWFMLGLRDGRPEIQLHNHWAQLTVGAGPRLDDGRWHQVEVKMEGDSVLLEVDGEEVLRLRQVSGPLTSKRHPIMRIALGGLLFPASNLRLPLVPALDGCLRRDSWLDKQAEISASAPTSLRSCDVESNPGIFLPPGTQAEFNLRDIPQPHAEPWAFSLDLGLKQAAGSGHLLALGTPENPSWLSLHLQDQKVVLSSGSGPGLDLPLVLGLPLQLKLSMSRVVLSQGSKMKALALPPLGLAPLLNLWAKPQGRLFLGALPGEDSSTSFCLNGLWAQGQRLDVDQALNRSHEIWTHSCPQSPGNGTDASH

**Q.** For COc1cc(C[C@@H]2COC(=O)[C@@]2(O)Cc2ccc(O)c(OC)c2)ccc1O [(−)-wikstromol, 4,4^1,8-trihydroxy-3, 3^1-dimethoxyliganan-9, 9^1-olide], which “activity against p-388 lymphocyte leukemia” value [1] is on record?
**A.** Its value is “active against p-388 lymphocyte leukemia”.

**Q.** What about the effectiveness when administered [2] of the same molecule?
**A.** The effectiveness when administered was “highly effective”.

**Q.** And the “antioxidant/radical scavenging potency compared with reference standards” value [3]?
**A.** Its value is “more potent antioxidant/radical scavenging potency than reference standards”.

**Q.** What about the anti-HIV activity [4] of the same molecule?
**A.** Its anti-HIV activity is “anti-HIV activity”.

**Q.** Which “CAMP phosphodiesterase inhibition activity” value [5] does the source give for COc1cc(C[C@H]2COC(=O)[C@@H]2Cc2ccc(O)c(OC)c2)ccc1O [(−)-Matairesinol, 4,4^1-dihydroxy-3, 3^1-dimethoxylignan-9, 9^1-olide] here?
**A.** Its value is “exhibits CAMP phosphodiesterase inhibition activity”.

**Q.** And the effectiveness when administered [2]?
**A.** Its effectiveness when administered is “highly effective”.

**Q.** What about the “binding of H-labeled 5α-dihydrotestosterone (DHT) to human SHBG” value [6] of the same molecule?
**A.** The value was “reduce the binding”.

**Q.** What about the “antioxidant/radical scavenging potency compared with reference standards” value [3] of the same molecule?
**A.** Its value is “more potent antioxidant/radical scavenging potency than reference standards”.
